Assay results taken from article PMC7998250, “Temperate Zone Plant Natural Products—A Novel Resource for Activity against Tropical Parasitic Diseases” (Pharmaceuticals, 2021).
Read-outs that look alike come from different tables or passages of the source.

Experiments:
[1] = system: 700022-resistant line of L. mexicana (r22) axenic amastigotes; experiment: EC50 in 700022-resistant L. mexicana (r22) axenic amastigotes; assay type: cell-based, Leishmania mexicana; details: for EC50: Leishmania mexicana, read-out: r22 28 weeks EC50, r22 after 28 weeks of 700022 selection pressure; for r22 28 weeks RI (resistance index, EC50 in r22/EC50 in WT): 28 weeks of 700022 selection pressure
Protocol: A 700022-resistant line of L. mexicana (r22) was generated using a previously reported method (Figure S3). […] All leishmanicidal sterols identified were assayed against r22 after 8 weeks of 700022 pressure and cross-resistance was found against all four compounds, each with a similar resistance index of between 4–5 (Figure 6c). Following 28 weeks of selection, the morphology of the r22 promastigotes was compared to that of WT (Figure 6d). […] The body area of both promastigotes and amastigotes was also assessed, noting a small (c 20%) decrease in the body area of r22 parasites compared to WT strains (Figure S3).
Figure 6 Comparison between wildtype and 700022-resistant (r22) L. mexicana cell lines. Log concentration versus normalised (compared to untreated control) growth curves for wildtype (WT) and corresponding 700022-selected (r22) L. mexicana (a) promastigotes and (b) axenic amastigotes. Error bars represent upper and lower limits of the StDev (n = 9). […] The resistance index (EC50 in r22/EC50 in WT) are shown for each compound. (d) Scanning electron micrographs of WT and r22 promastigotes illustrating the shortened flagellum in r22 parasites. (e) Analysis of flagellum length in WT and r22 promastigotes (n = 287 of each strain) reported using a box and whisker plot (boxes represents the 25–75th percent distribution with the mean as a horizontal line, whiskers represent the distribution of all values) with a statistically significant difference (Mann–Whitney U test, p-value < 2.2 × 10^−16). […] Error bars represent upper and lower limits of the StDev (n = 9). […] The resistance index (EC50 in r22/EC50 in WT) are shown for each compound. TEXT PRINTED IN THE PICTURE: (c) 700022: 4.1 | (c) 700107: 4.1 | (c) 700136: 5.3 | (c) 700240: 5.3 | (f) 700022: 42.1 | (f) Milt: 17.9 | (f) Pent: 0.75 | (f) AmpB: 1.22 DOUBTS OF THE COPYIST ABOUT THIS PICTURE: Panels c and f: the numbers printed above the bar pairs have no measure or unit printed with them in the picture.
L. mexicana parasites were grown in increasing concentrations of 700022 in a stepwise manner, as previously described. […] A dose response assay of the newly selected promastigotes was completed as stated above, with the exception of the seeding density of 1 × 10^5 cells/mL. At this point, the drug pressure was increased to the concentration of the new EC50 value.

T. evansi = experiment: Concentration-response EC50, T. evansi; assay type: cell-based; details: Trypanosoma evansi, 48 h, read-out: T. evansi EC50
Source text: Initial hits from the parasite panel screen were taken forward in log concentration versus normalised response assays to estimate the half maximal effective concentration (EC50) in hit species as well as the half maximal cytotoxic concentrations (CC50) in the human hepatoma cell line HepG2 as a preliminary test for selectivity. Using CC50/EC50 to define the selectivity index (SI), the selectivity for each compound in a defined species compared to a human cell line was estimated and compared to the EC50 (Figure 3).
EC50 values were determined by serial two-fold dilution of each compound in 96 well plates. Culture conditions and viability assays were as stated for the initial screen, with some exceptions. L. mexicana and L. donovani axenic amastigotes were seeded at 2 × 10^6 cell/s mL, T. brucei and T. evansi were seeded at 2 × 10^5 cells/mL. For cytotoxicity studies, HepG2 cells were seeded at 1 × 10^5 cells/mL, incubated for 48 h and viability was assessed using the Alamar Blue assay [66, 67]. […] Normalised growth and viability data (compared to untreated controls) were plotted against Log10 concentration to estimate EC50 in GraphPad (Prism v6).

[2] = system: T. brucei bloodstream form; experiment: Initial screen, T. brucei bloodstream form, Alamar Blue; assay type: cell-based, Trypanosoma brucei brucei; details: initial screen; for activity at 2 µM: Trypanosoma brucei
Protocol: (§1) 634 compounds from the PhytoQuest Phytopure temperate plant natural product library were screened for growth inhibitory activity against L. mexicana axenic amastigotes, T. brucei bloodstream form, intraerythrocytic asexual P. falciparum (at 2 μM) and T. evansi bloodstream form parasites (at 1 μM). […] Our initial hits were defined as reducing growth of the parasite by ≥50%.
(§2) L. mexicana strain MNYC/BZ/62/M379 and L. donovani strain LdBOB (a clonal line from strain MHOM/SD/62/1S-CL2) were maintained in vitro in the procyclic promastigote stage. Parasites were cultivated at 26 °C in Schneider’s medium (Gibco) pH 7.0 containing 10% FBS, 100 U/mL penicillin (Lonza) and 100 μg/mL streptomycin (Lonza) as previously described. Differentiation into axenic amastigotes was performed as described previously. Briefly, axenic amastigotes were cultivated at 32 °C in Schneider’s medium pH 5.5 containing 10% FBS, 100 U/mL penicillin (Lonza) and 100 μg/mL streptomycin (Lonza). Bloodstream form T. brucei brucei strain Lister 427 and T. evansi strain Antat 3/3 [59] were maintained in vitro at 37 °C with 5% (v/v) CO2 in HMI-11 medium supplemented with 10% FBS, as described elsewhere. Intraerythrocytic cultures of P. falciparum Dd2^Luc strain [62] were maintained at 37 °C in a 1% O2:3% CO2:96% N2 atmosphere in RPMI-1640 containing 37.5 mM HEPES, 5 mM NaOH, 10 mM D-glucose, 2 mM L-glutamine, 100 μM hypoxanthine, […] gentamicin sulfate, 5% human serum and 5% albumax-II and 2% haematocrit erythrocytes. When required, cultures were synchronised to ring stages using the sorbitol lysis method. Preliminary cytotoxicity screening was assessed using HepG2 cells. These cells were maintained in vitro at 37 °C with 5% (v/v) CO2 in DMEM (Sigma) pH 7 supplemented with 10% FBS, 100 U/mL penicillin (Lonza) and 100 μg/mL streptomycin (Lonza), as previously described. The human monocyte cell line THP-1 [68] was maintained in vitro by culturing at 37 °C with 5% (v/v) CO2 in complete RPMI medium (Dutch modified RPMI-1640 (Gibco) containing 10% FBS and 2 mM L-glutamine (Gibco)). Differentiation of THP-1 cells into macrophages was performed by seeding 2.5 × 10^5 cells/mL in complete RPMI media, supplemented with 20 ng/mL phorbol 12-myristate 13-acetate (PMA), followed by incubation at 37 °C with 5% (v/v) CO2 for 24 h.
(§3) The library was provided as 634 non-polar compounds (1 mg/mL in DMSO). Initial screening was performed in a 96-well plate with 200 μL of parasite culture. The initial screen used each compound at a final concentration of 2 μM for L. mexicana axenic amastigotes, T. brucei and P. falciparum, and at 1 μM for T. evansi. L. mexicana axenic amastigotes were plated at 1 × 10^6 cells/mL, incubated for 72 h, and the Alamar Blue assay was used to assess parasite growth. Each compound was tested in triplicate, with two biological replicates (n = 6). T. brucei and T. evansi were plated at 1×10^5 cells/mL for 48 h, and the Alamar Blue assay was used to assess parasite growth. Each compound was tested in triplicate with two biological replicates (n = 6). Intraerythrocytic P. falciparum in the trophozoite stage were seeded at 0.5% parasitaemia and 2% haematocrit for 48 h, and the Malaria SYBR-Green I fluorescence assay was used to assess parasite growth. Each compound was tested in duplicate with two biological replicates (n = 4). Negative controls comprised an equivalent volume of DMSO (equivalent of 1% v/v) to normalise the growth data. Data points >100% growth and <0% growth were tabulated as 100% and 0%, respectively. Some compounds were not tested in all parasite lines as there was insufficient material remaining.

[3] = system: P. falciparum Dd2Luc intraerythrocytic trophozoites; experiment: Initial screen, intraerythrocytic P. falciparum, Malaria SYBR-Green I fluorescence assay; assay type: cell-based, Plasmodium falciparum; details: for activity at 2 µM: Plasmodium falciparum
Protocol: as §1, with “≥50%. […]” for “≥50%.”
as §3, with “The PhytoQuest Phytopure library is a commercially available collection of purified compounds isolated predominantly from temperate zone plants, with structures confirmed by NMR and mass spectrometry. The library” for “The library”

[4] = system: L. mexicana axenic amastigotes; experiment: Initial screen, L. mexicana axenic amastigotes, Alamar Blue; assay type: cell-based, Leishmania mexicana; details: for decrease of L. mexicana survival: 2 μM, 72 h; for activity at 2 µM: Leishmania mexicana
Protocol: as §1, with “≥50%. […]” for “≥50%.”
as §3, with “The PhytoQuest Phytopure library is a commercially available collection of purified compounds isolated predominantly from temperate zone plants, with structures confirmed by NMR and mass spectrometry. The library” for “The library”

[5] = system: T. evansi bloodstream form; experiment: Initial screen, T. evansi bloodstream form, Alamar Blue; assay type: cell-based, Trypanosoma evansi; details: Trypanosoma evansi; for activity at 1 µM: initial screen; for inhibition of growth at 1 µM: read-out: initial hit T.e
Protocol: as §1, §2, §3

[6] = system: L. mexicana axenic amastigotes; experiment: Concentration-response EC50, L. mexicana axenic amastigotes (WT); assay type: cell-based, Leishmania mexicana; details: Leishmania mexicana
[7] = 48 h, read-out: %growth P. falciparum, mean % growth compared to a normalised control with same concentration of DMSO solvent, initial screen
[8] = read-out: % growth L. mexicana, mean % growth compared to a normalised control with same concentration of DMSO solvent, initial screen
[9] = mean % growth compared to a normalised control with same concentration of DMSO solvent, read-out: % growth T. evansi
[10] = mean % growth compared to a normalised control with same concentration of DMSO solvent, initial screen

Compound `C[C@@H]1[C@H](O)[C@@H](C)/C=C/C=C/C=C/C=C/C=C/C=C/C=C/[C@H](O[C@@H]2O[C@H](C)[C@@H](O)[C@H](N)[C@@H]2O)C[C@@H]2O[C@](O)(C[C@@H](O)C[C@@H](O)[C@H](O)CC[C@@H](O)C[C@@H](O)CC(=O)O[C@H]1C)C[C@H](O)[C@H]2C(=O)O` [Amphotericin B, reference compound] has an EC50 [1] of 0.28 µM.

In the case of `CC1=CC(CC(C)C2CCC3(C)C4=CCC5C(C)(C)C(=O)CCC5(C)C4CCC23C)OC1=O` (stereo not shown) [Compound 700016], the EC50 (T. evansi; bloodstream form) is reported as over 3 µM, the activity at 2 µM ([2]; mean % growth compared to a normalised control with same concentration of DMSO solvent, read-out: % growth T. b. brucei) is reported as 75.7% and the activity at 2 µM [3, 7] is reported as 104%. The “decrease of L. mexicana survival” value [4] was “more than 50%”, the activity at 2 µM [4, 8] was 47.1% and the activity at 1 µM [5, 9] was 40.5%. The inhibition of growth at 1 µM ([5]; 1 μM, x = initial hit) was over 50%.

With `CC(=O)OC1C(O)C(C)OC(OC2C(OC(=O)C3CC[C@@H]4[C@H](C3)OC3(CC(OC(=O)/C=C/c5ccccc5)[C@@H](C)CO3)C43CO3)OC(CO)C(O)C2OC(C)=O)C1O` (stereo partly shown) [Compound 700063] the EC50 (T. evansi) was over 10 µM, the “% growth T. b. brucei” value ([2]; mean % growth compared to a normalised control with same concentration of DMSO solvent) was 95.6% and the “activity against P. falciparum in screen” value ([3]; 2 μM) was “neither 700014 or 700063 showed activity against P. falciparum”. For the same compound, the “%growth P. falciparum” value [3, 10] was 104.8%, the “decrease of L. mexicana survival” value [4] was about 70% and the “% growth L. mexicana” value [4, 10] was 70.5%. For the same compound, the activity at 1 µM ([5]; read-out: % growth T. evansi, mean % growth compared to a normalised control with same concentration of DMSO solvent) was 44.5% and the inhibition of growth at 1 µM [5] was over 50%.

`CC(C)=CCc1c(O)cc2oc(-c3ccc(O)c(O)c3)c(O)c(=O)c2c1O` [Compound 700326] gave an EC50 (T. evansi; bloodstream form) of 1.8 µM, an activity at 2 µM [3, 7] of 63.1% and an activity at 2 µM [4, 8] of 27%. It also gave an activity at 1 µM [5, 9] of 34.7% and an inhibition of growth at 1 µM ([5]; 1 μM, x = initial hit) of over 50%.

In the case of `CC(C)c1cc(CCC2C(=O)CCCC2(C)C)c(O)cc1O` (stereo not shown) [Compound 700454], the EC50 (T. evansi; bloodstream form) is reported as 3.3 µM, the activity at 2 µM ([2]; compared to a normalised control with same concentration of DMSO solvent, read-out: mean % growth, T. b. brucei) is reported as 77.3% and the “reduction of P. falciparum growth” value ([3]; 2 μM, 48 h, Dd2Luc) is reported as 5%. For the same compound, the activity at 2 µM ([3]; 48 h, read-out: mean % growth, P. falciparum, initial screen, compared to a normalised control with same concentration of DMSO solvent) was 95.4%, the activity at 2 µM ([4]; read-out: mean % growth, L. mexicana, initial screen, compared to a normalised control with same concentration of DMSO solvent) was 47.9% and the activity at 1 µM ([5]; compared to a normalised control with same concentration of DMSO solvent, read-out: mean % growth, T. evansi) was 43.7%. It also gave an inhibition of growth at 1 µM ([5]; 1 μM, x = initial hit) of over 50%.

With `CCCCCCCCCCCCCCCCOP(=O)([O-])OCC[N+](C)(C)C` [Miltefosine, reference compound] the EC50 ([6]; read-out: WT EC50, L. mexicana WT axenic amastigotes) was 1.1 µM, the “r22 28 weeks RI (resistance index, EC50 in r22/EC50 in WT)” value [1] was 17.9 and the EC50 [1] was 20 µM.

`N=C(N)c1ccc(OCCCCCOc2ccc(C(=N)N)cc2)cc1` [Pentamidine, reference compound] was tested, and the EC50 ([6]; L. mexicana WT axenic amastigotes, read-out: WT EC50) was 6.8 µM, the “r22 28 weeks RI (resistance index, EC50 in r22/EC50 in WT)” value [1] was 0.75 and the EC50 [1] was 5.1 µM.
